Measurements taken from patent US11180482B2, “Anilinopyrimidines as haematopoietic progenitor kinase 1 (HPK1) inhibitors” (Ariad Pharmaceuticals, Inc., priority 2016, dated 2021).

Each compound was assayed against Wild Type HPK1 (MAP4K1) Kinase (Homo sapiens (Human), UniProt Q92918) (assay: HPK1 Assay (Caliper EZ reader, fluorescein tagged peptide substrate)). Details: ATP 500 micromolar, kinase 6 nM, pH 7.4.
Sequence of Wild Type HPK1 (MAP4K1) Kinase (Q92918 whole entry, species assumed): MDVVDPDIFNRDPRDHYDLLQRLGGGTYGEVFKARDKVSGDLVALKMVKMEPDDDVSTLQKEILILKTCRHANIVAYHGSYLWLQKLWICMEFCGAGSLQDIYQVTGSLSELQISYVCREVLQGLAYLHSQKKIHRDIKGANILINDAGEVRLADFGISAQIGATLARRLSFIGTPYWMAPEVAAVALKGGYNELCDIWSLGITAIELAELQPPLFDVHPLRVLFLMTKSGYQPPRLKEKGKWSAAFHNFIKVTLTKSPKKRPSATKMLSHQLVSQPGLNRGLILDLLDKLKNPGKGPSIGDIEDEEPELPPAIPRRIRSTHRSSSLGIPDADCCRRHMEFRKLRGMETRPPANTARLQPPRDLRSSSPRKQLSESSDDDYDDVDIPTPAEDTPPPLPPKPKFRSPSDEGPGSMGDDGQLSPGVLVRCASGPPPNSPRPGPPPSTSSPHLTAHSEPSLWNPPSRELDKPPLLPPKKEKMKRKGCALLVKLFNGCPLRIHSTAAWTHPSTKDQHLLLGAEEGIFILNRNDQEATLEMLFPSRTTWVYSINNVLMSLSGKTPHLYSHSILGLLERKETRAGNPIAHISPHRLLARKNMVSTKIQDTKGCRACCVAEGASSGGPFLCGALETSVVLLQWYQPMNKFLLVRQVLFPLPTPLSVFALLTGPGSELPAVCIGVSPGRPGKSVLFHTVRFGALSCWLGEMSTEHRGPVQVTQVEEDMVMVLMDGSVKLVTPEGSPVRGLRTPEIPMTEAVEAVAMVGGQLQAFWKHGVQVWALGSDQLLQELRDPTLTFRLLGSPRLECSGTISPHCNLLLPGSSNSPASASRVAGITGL
Type: biochemical
Procedure: The enzymatic activity of Wild Type HPK1 (MAP4K1) Kinase was measured in the presence or absence of an inhibitor compound of the present disclosure by preparation of a reaction mixture containing a fluorescein tagged peptide (2 micromolar final concentration), ATP (Adenosine Triphosphate, 500 micromolar final concentration) and Wild Type kinase (6 nM final concentration) in a buffer system comprising 50 mM HEPES (Buffer), 3 mM MgCl2, 5% w/v Trehalose, 0.01% Brij 35 (Detergent), 0.1% Pluronic F127 (Surfactant), 0.1 mM EDTA (Ethylenediaminetetraacetic acid), 0.1 mM EGTA (ethylene glycol-bis(β-aminoethyl ether)-N,N,N′,N′-tetraacetic acid) and 1 mM DTT (Dithiothreitol) and at a pH of 7.4. The reactions were quenched by the addition of EDTA to a final concentration of 25 mM. A Caliper EZ reader was used to measure the extent of substrate to product conversion.
The peptide substrate used in the HPK1 assay was designed based on the amino acid sequence surrounding serine residue 376 of SLP76-Lymphocyte cytosolic protein 2 (a known intracellular substrate of HPK1). This sequence SSFPQSAsLPPYFSQ was modified as follows for use in Caliper assays of HPK1: the serine residues on either side of serine 376 were replaced with alanine, three lysine residues were added at the […] and a fluorescein tag (FAM) was attached to the […] to produce the sequence, FAM-FPQAAsLPPYFAKKK.
For `COc1cc2c(cc1Nc1ncc(Cl)c(Nc3ccccc3P(C)(C)=O)n1)CN(C)C2` [Example I-1, (2-((5-Chloro-2-((6-methoxy-2-methylisoindolin-5-yl)amino)pyrimidin-4-yl)amino)phenyl)dimethylphosphine oxide], the IC50 was 0.01 to 0.1 µM. For `COc1cc2c(cc1Nc1ncc(Cl)c(Nc3ccccc3P(C)(C)=O)n1)CN(C)CC2` [Example I-2, (2-((5-chloro-2-((6-methoxy-2-methyl-1,2,3,4-tetrahydroisoquinolin-7-yl)amino)pyrimidin-4-yl)amino)phenyl)dimethylphosphine oxide], the IC50 was less than 0.005 µM. In the case of `COc1cc2c(cc1Nc1ncc(Cl)c(Nc3ccccc3P(C)(C)=O)n1)CCN(C)CC2` [Example I-3, (2-((5-chloro-2-((8-methoxy-3-methyl-2,3,4,5-tetrahydro-1H-benzo[d]azepin-7-yl)amino)pyrimidin-4-yl)amino)phenyl)dimethylphosphine oxide], the IC50 is reported as 0.01 to 0.1 µM. Compound `COc1cc2c(cc1Nc1ncc(Cl)c(Nc3ccccc3P(C)(C)=O)n1)CCCN(C)C2` [Example I-4, (2-((5-chloro-2-((8-methoxy-2-methyl-2,3,4,5-tetrahydro-1H-benzo[c]azepin-7-yl)amino)pyrimidin-4-yl)amino)phenyl)dimethylphosphine oxide] has an IC50 of 0.01 to 0.1 µM. For `CN1CCc2cc(F)c(Nc3ncc(Cl)c(Nc4ccccc4P(C)(C)=O)n3)cc2C1` [Example I-5, (2-((5-chloro-2-((6-fluoro-2-methyl-1,2,3,4-tetrahydroisoquinolin-7-yl)amino)pyrimidin-4-yl)amino)phenyl)dimethylphosphine oxide], the IC50 was less than 0.005 µM. In the case of `CN1CCc2cc(Cl)c(Nc3ncc(Cl)c(Nc4ccccc4P(C)(C)=O)n3)cc2C1` [Example I-6, 5-chloro-N^2-(6-chloro-2-methyl-3,4-dihydro-1H-isoquinolin-7-yl)-N^4-(2-dimethylphosphorylphenyl)pyrimidine-2,4-diamine], the IC50 is reported as less than 0.005 µM. `CCc1cc2c(cc1Nc1ncc(Cl)c(Nc3ccccc3P(C)(C)=O)n1)CN(C)CC2` [Example I-7, 5-chloro-N^4-(2-dimethylphosphorylphenyl)-N^2-(6-ethyl-2-methyl-3,4-dihydro-1H-isoquinolin-7-yl)pyrimidine-2,4-diamine] was tested, and the IC50 was 0.005 to 0.01 µM. `C=Cc1cc2c(cc1Nc1ncc(Cl)c(Nc3ccccc3P(C)(C)=O)n1)CN(C)CC2` [Example I-8, 5-chloro-N^4-(2-dimethylphosphorylphenyl)-N^2-(2-methyl-6-vinyl-3,4-dihydro-1H-isoquinolin-7-yl)pyrimidine-2,4-diamine] was tested, and the IC50 was 0.005 to 0.01 µM. `COc1c(Nc2ncc(Cl)c(Nc3ccccc3P(C)(C)=O)n2)cc2c(c1N)CC1CCCCN1C2` (stereo not shown) [Example I-9, N^8-[5-chloro-4-(2-dimethylphosphorylanilino)pyrimidin-2-yl]-9-methoxy-2,3,4,6,11,11a-hexahydro-1H-benzo[b]quinolizine-8,10-diamine] showed an IC50 of 0.01 to 0.1 µM. `COc1cc2c(cc1Nc1ncc(Cl)c(Nc3ccccc3P(C)(C)=O)n1)CN1CCCCC1C2` (stereo not shown) [Example I-10, 5-chloro-N^4-(2-dimethylphosphorylphenyl)N^2-(9-methoxy-2,3,4,6,11,11a-hexahydro-1H-benzo[b]quinolizin-8-yl)pyrimidine-2,4-diamine] gave an IC50 of less than 0.005 µM. In the case of `COc1cc2c(cc1Nc1ncc(Cl)c(Nc3ccccc3P(C)(C)=O)n1)CN(C(C)C)CC2` [Example I-11, (2-((5-chloro-2-((2-isopropyl-6-methoxy-1,2,3,4-tetrahydroisoquinolin-7-yl)amino)pyrimidin-4-yl)amino)phenyl)dimethylphosphine oxide], the IC50 is reported as less than 0.005 µM. Work on `CCN1CCc2cc(OC)c(Nc3ncc(Cl)c(Nc4ccccc4P(C)(C)=O)n3)cc2C1` [Example I-12, (2-((5-chloro-2-((2-ethyl-6-methoxy-1,2,3,4-tetrahydroisoquinolin-7-yl)amino)pyrimidin-4-yl)amino)phenyl)dimethylphoshine oxide] yielded an IC50 of less than 0.005 µM. `COc1cc2c(cc1Nc1ncc(Cl)c(Nc3ccccc3P(C)(C)=O)n1)[C@H](N(C)C)CCC2` [Example I-13, (R)-(2-((5-chloro-2-((8-(dimethylamino)-3-methoxy-5,6,7,8-tetrahydronaphthalen-2-yl)amino)pyrimidin-4-yl)amino)phenyl)dimethylphosphine oxide] was tested, and the IC50 was 0.01 to 0.1 µM. `COc1cc2c(cc1Nc1ncc(Cl)c(Nc3ccccc3P(C)(C)=O)n1)[C@H](N(C)C)CC2` [Example I-14, (R)-(2-((5-chloro-2-((3-(dimethylamino)-6-methoxy-2,3-dihydro-1H-inden-5-yl)amino)pyrimidin-4-yl)amino)phenyl)dimethylphosphine oxide] was tested, and the IC50 was 0.005 to 0.01 µM. For `COc1cc2c(cc1Nc1ncc(Cl)c(Nc3ccccc3P(C)(C)=O)n1)[C@@H](N(C)C)CCC2` [Example I-15, (S)-(2-((5-chloro-2-((8-(dimethylamino)-3-methoxy-5,6,7,8-tetrahydronaphthalen-2-yl)amino)pyrimidin-4-yl)amino)phenyl)dimethylphosphine oxide], the IC50 was 0.1 to 10 µM. `COc1cc2c(cc1Nc1ncc(Cl)c(Nc3ccccc3P(C)(C)=O)n1)[C@@H](N(C)C)CC2` [Example I-16, (S)-(2-((5-chloro-2-((3-(dimethylamino)-6-methoxy-2,3-dihydro-1H-inden-5-yl)amino)pyrimidin-4-yl)amino)phenyl)dimethylphosphine oxide] gave an IC50 of 0.1 to 10 µM. `COc1cc2c(cc1Nc1ncc(Cl)c(Nc3ccccc3P(C)(C)=O)n1)CC(N(C)C)C2` (stereo not shown) [Example I-17, (2-((5-chloro-2-((2-(dimethylamino)-6-methoxy-2,3-dihydro-1H-inden-5-yl)amino)pyrimidin-4-yl)amino)phenyl)dimethylphosphine oxide] was tested, and the IC50 was 0.01 to 0.1 µM. Compound `COc1cc2c(cc1Nc1ncc(Cl)c(Nc3ccccc3P(C)(C)=O)n1)CCN(C)C2` [Example I-18, (2-((5-chloro-2-((7-methoxy-2-methyl-1,2,3,4-tetrahydroisoquinolin-6-yl)amino)pyrimidin-4-yl)amino)phenyl)dimethylphosphine oxide] has an IC50 of less than 0.005 µM. In the case of `CCP(=O)(CC)c1ccccc1Nc1nc(Nc2cc3c(cc2OC)CCN(C)C3)ncc1Cl` [Example I-19, (2-((5-chloro-2-((6-methoxy-2-methyl-1,2,3,4-tetrahydroisoquinolin-7-yl)amino)pyrimidin-4-yl)amino)phenyl)diethylphosphine oxide], the IC50 is reported as less than 0.005 µM. `CCP(=O)(CC)c1ccccc1Nc1nc(Nc2cc3c(cc2Cl)CCN(C)C3)ncc1Cl` [Example I-20, (2-((5-chloro-2-((6-chloro-2-methyl-1,2,3,4-tetrahydroisoquinolin-7-yl)amino)pyrimidin-4-yl)amino)phenyl)diethylphosphine oxide] was tested, and the IC50 was less than 0.005 µM. With `COc1cc2c(cc1Nc1ncc(Br)c(Nc3ccccc3P(C)(C)=O)n1)CN(C)CC2` [Example I-22, (2-((5-bromo-2-((6-methoxy-2-methyl-1,2,3,4-tetrahydroisoquinolin-7-yl)amino)pyrimidin-4-yl)amino)phenyl)dimethylphosphine oxide] the IC50 was less than 0.005 µM. `COc1cc2c(cc1Nc1ncc(OC)c(Nc3ccccc3P(C)(C)=O)n1)CN(C)CC2` [Example I-23, (2-((5-methoxy-2-((6-methoxy-2-methyl-1,2,3,4-tetrahydroisoquinolin-7-yl)amino)pyrimidin-4-yl)amino)phenyl)dimethylphosphine oxide] gave an IC50 of 0.005 to 0.01 µM.
